Test results published in ChEMBL document CHEMBL5331103, “Discovery of novel 2-hydroxyl-4-benzyloxybenzyl aniline derivatives as potential multifunctional agents for the treatment of Parkinson's disease” (Eur J Med Chem, 2023).
Active and inactive are the calls of the source. The rule behind the calls is not given here.

Columns and labels:
[1] = target: T1, Amine oxidase [flavin-containing] A (Homo sapiens, UniProt P21397); assay: Inhibition of MAO-A (unknown origin) using kynuramine as substrate at 10 uM preincubated for 30 mins followed by substrate addition and measured after 30 mins by fluorescence based analysis relative to control; details: 0.5 h, time 60 min
T1 sequence (P21397 whole entry): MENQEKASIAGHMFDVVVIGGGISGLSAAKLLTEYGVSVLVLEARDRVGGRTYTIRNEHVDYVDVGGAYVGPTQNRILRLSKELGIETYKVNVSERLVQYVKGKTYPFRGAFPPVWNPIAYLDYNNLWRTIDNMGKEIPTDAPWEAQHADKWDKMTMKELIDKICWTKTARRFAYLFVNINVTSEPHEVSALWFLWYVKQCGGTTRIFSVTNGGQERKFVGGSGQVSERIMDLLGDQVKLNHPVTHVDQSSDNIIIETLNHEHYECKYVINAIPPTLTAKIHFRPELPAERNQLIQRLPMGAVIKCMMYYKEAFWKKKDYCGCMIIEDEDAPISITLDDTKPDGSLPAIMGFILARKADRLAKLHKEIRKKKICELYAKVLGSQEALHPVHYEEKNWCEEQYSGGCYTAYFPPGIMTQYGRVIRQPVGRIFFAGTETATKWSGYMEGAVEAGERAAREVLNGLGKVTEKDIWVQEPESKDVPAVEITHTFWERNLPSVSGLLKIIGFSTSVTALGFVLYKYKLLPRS

[2] = target: T2, Amine oxidase [flavin-containing] B (Homo sapiens, UniProt P27338)
T2 sequence (P27338 whole entry): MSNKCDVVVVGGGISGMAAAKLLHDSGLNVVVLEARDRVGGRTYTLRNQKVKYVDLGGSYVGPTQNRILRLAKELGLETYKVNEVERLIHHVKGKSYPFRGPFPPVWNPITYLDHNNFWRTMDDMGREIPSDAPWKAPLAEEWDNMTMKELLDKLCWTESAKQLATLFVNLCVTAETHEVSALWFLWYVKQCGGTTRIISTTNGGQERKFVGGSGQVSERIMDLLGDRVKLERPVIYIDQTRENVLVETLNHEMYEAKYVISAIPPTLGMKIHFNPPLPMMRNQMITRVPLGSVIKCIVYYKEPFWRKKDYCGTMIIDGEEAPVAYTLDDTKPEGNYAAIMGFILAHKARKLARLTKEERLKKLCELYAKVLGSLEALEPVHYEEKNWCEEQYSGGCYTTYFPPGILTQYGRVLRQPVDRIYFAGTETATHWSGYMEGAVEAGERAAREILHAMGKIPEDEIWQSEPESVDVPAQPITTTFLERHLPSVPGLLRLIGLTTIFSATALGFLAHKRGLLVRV
Description: Inhibition of MAO-B (unknown origin) using kynuramine as substrate preincubated for 30 mins followed by substrate addition and measured after 30 mins by fluorescence based analysis

PC-12 [3] = assay: Neuroprotective activity against H2O2-induced cell damage in rat PC-12 cells assessed as increase in cell viability at 2.5 uM preincubated for 2 hrs followed by H2O2 addition and measured after 24 hrs by MTT assay (reference value: 50.3%); type: functional; details: time 26 hrs
[4] = Metal chelating activity assessed as Cu2+-compound complex formation by measuring increase in absorbance incubated for 2 hrs in the presence of CuCl2 by UV-Vis spectra analysis
[5] = target: T2, Amine oxidase [flavin-containing] B; assay: Competitive inhibition of MAO-B (unknown origin) using kynuramine as substrate assessed as […] at 0.007 to 0.028 uM by Lineweaver-Burk plot analysis; details: dose 0.007-0.028 µM
[6] = Metal chelating activity assessed as Fe3+-compound complex formation by measuring increase in absorbance incubated for 2 hrs in the presence of FeCl3 by UV-Vis spectra analysis
[7] = Permeability of the compound in porcine brain incubated for 18 hrs by PAMPA-BBB assay; type: ADME, Sus scrofa; details: pig, read-out: permeability
BV-2 [8] = assay: Anti-neuroinflammatory activity in mouse BV-2 cells assessed as inhibition of LPS-induced NO production at 2.5 uM preincubated for 30 mins followed by LPS stimulation and measured after 24 hrs by Griess reagent based assay relative to control; type: functional; details: time 24.5 hrs
BV-2 [9] = assay: Anti-neuroinflammatory activity in mouse BV-2 cells assessed as inhibition of LPS-induced NO production at 10 uM preincubated for 30 mins followed by LPS stimulation and measured after 24 hrs by Griess reagent based assay relative to control; type: functional; details: time 24.5 hrs
[10] = Metal chelating activity assessed as Fe2+-compound complex formation by measuring increase in absorbance incubated for 2 hrs in the presence of FeSO4 at 30 to 900 uM by UV-Vis spectra analysis
BV-2 [11] = assay: Anti-neuroinflammatory activity in mouse BV-2 cells assessed as inhibition of LPS-induced TNF-alpha production at 10 uM preincubated for 30 mins followed by LPS stimulation and measured after 24 hrs by ELISA analysis relative to control; type: functional; details: time 24.5 hrs
PC-12 [12] = assay: Cytotoxicity against rat PC-12 cells assessed as reduction in cell viability upto 50 uM incubated for 2 hrs by MTT assay; type: toxicity, cell-based; details: pc-12, 2 h
Mus musculus [13] = assay: In vivo inhibition of MAO-B in MPTP-induced C57BL/6C parkinson's mouse model assessed as increase in DA level in corpus striatum at 53.5 mg/kg, IG preadministered with MPTP for 5 days followed by compound administration for 3 weeks and measured 1 hrs post last dose by HPLC-ECD method; type: functional, organism-based
PC-12 [14] = assay: Neuroprotective activity against H2O2-induced cell damage in rat PC-12 cells assessed as increase in cell viability at 10 uM preincubated for 2 hrs followed by H2O2 addition and measured after 24 hrs by MTT assay (reference value: 50.3%); type: functional; details: time 26 hrs
[15] = Metal chelating activity assessed as Al3+-compound complex formation by measuring increase in absorbance incubated for 2 hrs in the presence of AlCl3 by UV-Vis spectra analysis
BV-2 [16] = assay: Inhibition of LPS-induced NFkappaB activation in mouse BV-2 cells assessed as inhibition of p65 translocation to nucleus at 1 to 10 uM preincubated for 30 mins followed by LPS-stimulation and measured after 16 hrs by Western blot analysis; type: cell-based; details: dose 1-10 µM, time 16.5 hrs
BV-2 [17] = assay: Inhibition of LPS-induced ROS production in mouse BV-2 cells at 10 uM preincubated for 30 mins followed by LPS-stimulation and measured after 30 mins by DCFH-DA based fluorescence microplate reader analysis relative to control; type: functional; details: BV-2, 1 h, time 60 min
BV-2 [18] = assay: Cytotoxicity against mouse BV-2 cells assessed as reduction in cell viability upto 10 uM incubated for 30 mins by MTT assay; type: toxicity, cell-based; details: bv-2, 0.5 h
BV-2 [19] = assay: Inhibition of LPS-induced ROS production in mouse BV-2 cells at 2.5 uM preincubated for 30 mins followed by LPS-stimulation and measured after 30 mins by DCFH-DA based fluorescence microplate reader analysis relative to control; type: functional; details: BV-2, 1 h, time 60 min
Mus musculus [20] = assay: Anti-parkinson's disease activity in MPTP-induced C57BL/6C mouse model assessed as reduction in time required to turn the head to 180 degree at 53.5 mg/kg, IG preadministered with MPTP for 5 days followed by compound administration for 3 weeks and measured 1 hrs post last dose by pole test; type: functional, organism-based
Mus musculus [21] = assay: Anti-parkinson's disease activity in MPTP-induced C57BL/6C mouse model assessed as reduction in beam walking test time at 53.5 mg/kg, IG preadministered with MPTP for 5 days followed by compound administration for 3 weeks and measured 1 hrs post last dose by beam-walking test; type: functional, organism-based
BV-2 [22] = assay: Anti-neuroinflammatory activity in mouse BV-2 cells assessed as inhibition of LPS-induced NO production at 0.5 uM preincubated for 30 mins followed by LPS stimulation and measured after 24 hrs by Griess reagent based assay relative to control; type: functional; details: time 24.5 hrs
[23] = target: T2, Amine oxidase [flavin-containing] B; assay: Competitive inhibition of MAO-B (unknown origin) using kynuramine as substrate assessed as increase in Km at 0.007 to 0.028 uM by Lineweaver-Burk plot analysis; details: dose 0.007-0.028 µM
Mus musculus [24] = assay: Anti-parkinson's disease activity in MPTP-induced C57BL/6C mouse model assessed as increase in traction test score at 53.5 mg/kg, IG preadministered with MPTP for 5 days followed by compound administration for 3 weeks and measured 1 hrs post last dose by traction test; type: functional, organism-based
BV-2 [25] = assay: Inhibition of LPS-induced NFkappaB activation in mouse BV-2 cells assessed as reduction in IkappaBalpha phosphorylation at 1 to 10 uM preincubated for 30 mins followed by LPS-stimulation and measured after 16 hrs by Western blot analysis; type: cell-based; details: dose 1-10 µM, time 16.5 hrs
Mus musculus [26] = assay: Anti-parkinson's disease activity in MPTP-induced C57BL/6C mouse model assessed as decrease in MDA level in corpus striatum at 53.5 mg/kg, IG preadministered with MPTP for 5 days followed by compound administration for 3 weeks and measured 1 hrs post last dose by HPLC-ECD method; type: functional, organism-based
[27] = Metal chelating activity assessed as Fe2+-compound complex formation by measuring red shift incubated for 2 hrs in the presence of FeSO4 by UV-Vis spectra analysis
[28] = target: T2, Amine oxidase [flavin-containing] B; assay: Competitive inhibition of MAO-B (unknown origin) using kynuramine as substrate assessed as inhibition constant by Lineweaver-Burk plot analysis
PC-12 [29] = assay: Neuroprotective activity against H2O2-induced cell damage in rat PC-12 cells assessed as increase in cell viability at 50 uM preincubated for 2 hrs followed by H2O2 addition and measured after 24 hrs by MTT assay (reference value: 50.3%); type: functional; details: time 26 hrs
[30] = Metal chelating activity assessed as Zn2+-compound complex formation by measuring increase in absorbance incubated for 2 hrs in the presence of ZnCl2 by UV-Vis spectra analysis
BV-2 [31] = assay: Anti-neuroinflammatory activity in mouse BV-2 cells assessed as inhibition of LPS-induced TNF-alpha production preincubated for 30 mins followed by LPS stimulation and measured after 24 hrs by ELISA analysis; type: functional, cell-based; details: dose 0.5-10 µM, time 24.5 hrs
Mus musculus [32] = assay: Anti-parkinson's disease activity in MPTP-induced C57BL/6C mouse model assessed as reduction in total time required to reach the bottom of pole at 53.5 mg/kg, IG preadministered with MPTP for 5 days followed by compound administration for 3 weeks and measured 1 hrs post last dose by pole test; type: functional, organism-based
[33] = Metal chelating activity assessed as Fe2+-compound complex formation by measuring increase in absorbance incubated for 2 hrs in the presence of FeSO4 by UV-Vis spectra analysis

Oc1cc(OCc2ccc(Cl)cc2)ccc1CNc1ccccc1
inhibition at 10 µM [1]: 51.2%
IC50 [2]: 58 nM

Oc1cc(OCc2ccccc2F)ccc1CNc1ccccc1
inhibition at 10 µM [1]: 8.34%
IC50 [2]: 334 nM

Oc1cc(OCc2cccc(F)c2)ccc1CNc1ccccc1
inhibition at 10 µM [1]: 11.8%
IC50 [2]: 95 nM

Oc1cccc(NCc2ccc(OCc3ccc(F)cc3)cc2O)c1
inhibition at 10 µM [1]: 35.5%
IC50 [2]: 67 nM

CC(C)(C)c1ccc(COc2ccc(CNc3ccccc3)c(O)c2)cc1
inhibition at 10 µM [1]: < 5%
IC50 [2]: 435 nM

O=[N+]([O-])c1ccc(COc2ccc(CNc3ccccc3)c(O)c2)cc1
inhibition at 10 µM [1]: 30.6%
IC50 [2]: 85 nM

Oc1cc(OCc2ccccc2Cl)ccc1CNc1ccccc1
inhibition at 10 µM [1]: 10.3%
IC50 [2]: 423 nM

Oc1cc(OCc2ccc(F)cc2)ccc1CNc1ccccc1
Activity (PC-12 [3]): 59.8%
Activity [4]: Active
inhibition (INH) [5]: Active
Activity [6]: Active
Papp at 18 h [7]: 8.62 ×10⁻⁶ cm/s
inhibition at 2.5 µM (BV-2 [8]): 28%
inhibition at 10 µM (BV-2 [9]): 76.1%
Activity [10]: Active
inhibition at 10 µM (BV-2 [11]): 63.9%
inhibition at 10 µM [1]: 43.7%
Activity (PC-12 [12]): Non-Toxic
inhibition (Mus musculus [13]): Active
Activity (PC-12 [14]): 69.6%
IC50 [2]: 14 nM
Activity [15]: Active
inhibition (BV-2 [16]): Active
inhibition at 10 µM (BV-2 [17]): 99%
Activity (BV-2 [18]): Non-Toxic
inhibition at 2.5 µM (BV-2 [19]): 21.2%
Activity (Mus musculus [20]): Active
Activity (Mus musculus [21]): Active
inhibition at 0.5 µM (BV-2 [22]): 13.5%
inhibition (INH) [23]: Active
Activity (Mus musculus [24]): Active
inhibition (BV-2 [25]): Active
Activity (Mus musculus [26]): Active
Activity [27]: Active
Ki [28]: 18 nM
Activity (PC-12 [29]): 77.2%
Activity [30]: Active
Activity (BV-2 [31]): Dose-Dependent Effect
Activity (Mus musculus [32]): Active
Activity [33]: Active

Oc1cc(OCc2ccc(F)c(F)c2)ccc1CNc1ccccc1
inhibition at 10 µM [1]: 48%
IC50 [2]: 21 nM
